Source: patent US20200221654A9, “APPLICATIONS OF ROOT-ADMINISTERED CHEMICAL HYBRIDIZING AGENTS IN PLANT BREEDING” (BAYER CROPSCIENCE AKTIENGESELLSCHAFT, priority 2016, published 2020)

Experiments:
Assay type in all cases: in vivo
[1] = system: Wheat plants of the wheat varieties JB Asano and Apache; assay: Male sterility after a single root application (watering) of Clofencet to potted wheat plants, seed set of bagged ears (Example 1); settings: for Average sterility relative to control: 1 root treatment, Zadok stage 31
Procedure: Wheat plants of the wheat varieties JB Asano and Apache were grown in the greenhouse in standard planting pots, bottom perforated, edge length 12 cm, height 13 cm, with one plant per pot. Twelve pots were placed into a plastic tray, bottom non-perforated with fleece inlay (e.g. available at Hermann Meyer KG unter article no. 44 54 11). Standard greenhouse growing substrate soil (bedding substrate 1 of Klasmann-Deilmann GmbH) was filled into the pot ca. 2 cm below edge. Plants were grown under standard growing conditions with respect to fertilizer, watering, disease and light management. Each plant was reduced to 4 tillers. The necessary active amount of Clofencet per plant was calculated according to the standard foliar spray application protocol of 5.42 kg per hectare assuming 400 ears per square meter taking the higher tiller number of potted plants into account (average number of ears per plant in the field is typically 1.15 but it was 4 in our potted plants, so the dose rate for root application per plant, i.e. per pot, was adjusted upward). At Zadoks growth stage 31 the plants were watered with 0.0 mg (control), 10.84 mg, 16.26 mg and 21.68 mg, respectively, of Clofencet in 200 ml tap water per pot. Each treatment was repeated on 12 plants, whereas the highest concentration was repeated on 24 plants. Before flowering time (Zadoks stage 57 of control group) ears were bagged to avoid unwanted cross-pollination. Bags were removed at beginning of grain filling (Zadoks stage 75 and higher), seed set was determined at kernel ripeness of the control group. When ears carried mature seeds, the ears were threshed with a hand-threshing device (Baumann Dreschhexe #4.701.200) and the kernels per plant were counted. A wheat ear is called completely sterile (=100% sterility) when no kernel developed on a bagged ear. The average number of grains per plant of the control plants was set to 0% sterility.

[2] = system: Wheat plants of the wheat varieties JB Asano and Apache; assay: Female fertility: seed set of Clofencet-treated male sterile plants after pollination with pollen from an untreated control plant (Example 3); settings: for Average seed set of Clofencet treated plants after pollination with wheat pollen (rel. to control): 1 root treatment, Zadok stage 31
Source text: Male sterile plants generated by Clofencet treatment as described in Example 1 were used. Before single bagging the 4 ears of each plant at Zadoks stages 55-59, flowers were clipped to facilitate pollination. At flowering time (spikelets wide open) three male-sterile ears (no pollen in the transparent bags) were pollinated with pollen from an untreated control plant of the same wheat variety. One sterile ear was not pollinated to cross check the efficacy of the Clofencet treatment. Bags were removed at beginning of grain filling (Zadoks stage 75 and higher), seed set was determined at kernel maturity. If ears had set seed, the ears were threshed with a hand-threshing device (Baumann Dreschhexe #4.701.200) and the kernels per plant were counted. The average number of grains per plant of the control plants was set to 100% seed set.

[3] = system: Wheat plants of the wheat varieties JB Asano and KWS Target; assay: Male sterility after weekly root application (watering) of WL84811 to potted wheat plants, seed set of bagged ears (Example 2); settings: for Average sterility relative to control after CHA: 1.0 mg/plant WL84811 in 100 ml water per treatment, 11 weekly root treatments (total 11.0 mg/plant), Zadok stage 31 to 65
Procedure: Wheat plants of the wheat varieties JB Asano and KWS Target were grown in the greenhouse in standard planting pots, bottom perforated, edge length 12 cm, height 13 cm, with one plant per pot. Twelve pots were placed into a plastic tray, bottom non-perforated with fleece inlay. Sandy loam from the field was filled into the pots ca. 2 cm below edge. Plants were grown under standard growing conditions with respect to fertilizer, watering, disease and light management. Each plant per pot was reduced to 4 tillers. The treatment was watering each pot with 0.0 mg (control) or 1.0 mg WL84811 in 100 ml tap water per pot. Each treatment was repeated on 2 plants per variety, watering with the treatment was done once a week for 11 weeks starting at Zadoks growth stage 31 until growth stage 65 of the control group. Ears were bagged to avoid unwanted cross-pollination. Bags were removed at beginning of grain filling (Zadoks stage 75 and higher), seed set was determined at kernel maturity of the control group. When ears had set seed, the ears were threshed by hand and the kernels per plant were counted. A wheat ear is called completely sterile (=100% sterility) when no kernel was developed on a bagged ear. The average number of grains per plant of the control plants was set to 0% sterility.

[4] = variety Apache, 10.84 mg/plant Clofencet in 200 ml water
[5] = variety Apache, 16.26 mg/plant Clofencet in 200 ml water
[6] = variety Apache, 21.68 mg/plant Clofencet in 200 ml water
[7] = variety JB Asano, 10.84 mg/plant Clofencet in 200 ml water
[8] = variety JB Asano, 16.26 mg/plant Clofencet in 200 ml water
[9] = variety JB Asano, 21.68 mg/plant Clofencet in 200 ml water

CCc1c(C(=O)O)c(=O)cnn1-c1ccc(Cl)cc1 [Clofencet, 2-(4-chlorophenyl)-3-ethyl-2,5-dihydro-5-oxopyridazine-4-carboxylic acid]
further effect on male sterility at higher doses (data not shown) ([1]; doses of active substance higher than 21.68 mg per plant): do not have any further positive effect | male sterility ([1]; single root application dose of 10.84 mg per plant with four tillers at growth stage 31): satisfying amount of average male sterility | male sterility ([1]; single root application of 16.26 mg per plant at growth stage 31): ~100% | Average sterility relative to control [1, 4]: 91.88% | Average sterility relative to control [1, 5]: 98.69% | Average sterility relative to control [1, 6]: 99.64% | Average sterility relative to control [1, 7]: 94.72% | Average sterility relative to control [1, 8]: 99.96% | Average sterility relative to control [1, 9]: 98.65% | seed set of bagged plants ([1]; watered once with an active dose of 16.26 mg or more in Zadoks stage 31): Almost no plants | female fertility of the treated plants ([2]; root treatment once, pollinated with pollen of untreated control plants): does not harm the female fertility | seed set compared to the control with 100% seed set ([2]; variety Apache): even seems to enhance seed set | Average seed set of Clofencet treated plants after pollination with wheat pollen (rel. to control) [2, 4]: 101% | Average seed set of Clofencet treated plants after pollination with wheat pollen (rel. to control) [2, 5]: 115% | Average seed set of Clofencet treated plants after pollination with wheat pollen (rel. to control) [2, 6]: 107% | Average seed set of Clofencet treated plants after pollination with wheat pollen (rel. to control) [2, 7]: 98% | Average seed set of Clofencet treated plants after pollination with wheat pollen (rel. to control) [2, 8]: 94% | Average seed set of Clofencet treated plants after pollination with wheat pollen (rel. to control) [2, 9]: 75%

O=C(O)C1CNC1 [WL84811, azetidine-3-carboxylic acid]
generation of male sterility ([3]; regular weekly watering with 1.0 mg, root treatment): very effective to generate male sterility | Average sterility relative to control after CHA ([3]; variety JB Asano): 100% | Average sterility relative to control after CHA ([3]; variety KWS Target): 100% | seed set of treated plants bagged before flowering ([3]; weekly 1.0 mg root treatment, bagged before flowering): No plant
